According to US12492403B2, “Aptamers and the use thereof in the treatment of cancer” (FUNDACIÓN PARA LA INVESTIGACIÓN BIOMÉDICA DEL HOSPITAL …, priority 2018, dated 2025):

Assays:
[1] = tested on: orthotopic xenograft of MDA-MB-231 cells; experiment: In vivo efficacy in orthotopic xenograft mouse model; parameters: species or system nude mice
Procedure: FIGS. 19A-19D. In vivo efficacy of apMNKQ2 in an orthotopic xenograft mouse model of MDA-MB-231 cells. (A) Evolution of the weight of the mouse over days of treatment with apMNKQ2 (FIG. 19A). (B) Relative tumor volume (RTV) over days of treatment (FIG. 19B). (C) Tumor weight after sacrificing the animal (FIG. 19C). (D) Immunohistochemical determination of proliferating cell nuclear antigen (PCNA) levels (FIG. 19D). The analysis of the positive nuclei was performed with the imageJ program. The boxes represent the mean±the maximum and minimum of 5-8 animals (*p<0.05 with respect to the control group).
FIGS. 20A-20D. Activation of apoptosis and expression of EMT markers in tumors from the mice with an orthotopic xenograft of MDA-MB-231 cells of FIG. 19. Immunodetection with specific antibodies by SDS-PAGE 12% of “cleaved” PARP ([…]), a-Spectrin (FIG. 20B) and the anti-apoptotic protein MCL1 (FIG. 20C) in tissue of mice treated with 1.8 mg/Kg of apMNKQ2 or with the vehicle. Expression levels of occludin (epithelial status marker) and FSP1 (mesenchymal marker) in tissue of mice treated with 1.8 mg/kg of apMNKQ2 or with the vehicle using qPCR (FIG. 20D). The values obtained were normalized with respect to β-actin. The boxes represent the mean±the maximum and the minimum of 4-5 animals (*p<0.05, **p<0.01 with respect to the control group).
For transfection in the in vivo model, the in vivo-jetPEI® transfection system (Polyplus, France) was used according to the manufacturer's instructions. The aptamer and jetPEI® reagent were separately diluted in glucose for the subsequent addition of the jetPEI® complex to that of the aptamer, such that the final glucose concentration is 5%. It was added to the cultures or injected into animals according to the assay.
Total RNA was obtained from cells using the NucleoZOL reagent ([…]-NAGEL, Germany) according to the manufacturer's instructions. Obtained RNA purity and integrity analyses were performed using the Experion™ RNA HighSens Analysis Kit chip (BioRad, USA). For the quantitative analysis of the mRNA levels, cDNAs were obtained with the SensiFAST™ cDNA synthesis kit (Bioline, United Kingdom) and real-time PCR was carried out in an IQ5 thermocycler (BioRad, USA) with the FastGene IC Green 2×qPCR Universal Mix kit (NIPPON Genetics, Germany).
In vivo assays were performed with nude mice inoculated with MDA-MB-231 cells and orthotopic tumors were generated. When these tumors reached a volume of 100 mm^3, the mice were randomly distributed into two groups of 9 animals. The treated group (1.8 mg/kg) was intravenously injected with 100 μl of 5% glucose containing 46 μg (5 nmol) of apMNKQ2 and 5.6 μl of jetPEI® transfectant (N/P ratio of 6) three times a week. The control group was injected with the 5% glucose solution containing the same volume of in vivo-jetPEI® reagent and aptamer buffer. As monitoring parameters, the tumor volume, assuming they are ellipsoids, and the weight of the animals were measured. At 18 days, the animals were sacrificed and the tumors were weighed and divided into two fragments, one to be frozen and another for fixing and inclusion in paraffin.
The immunohistochemical determination of the proliferating cell nuclear antigen (PCNA), sections of the paraffinized samples were made and they were then deparaffinized and rehydrated. The antigen was unmasked by incubating the sections in a 10 mM citrate buffer in a pressure cooker at maximum pressure for 2 minutes. After performing two quick washes with distilled water and two 5-minute washes with TBS, the sections were incubated in a blocking solution (3% fetal bovine serum in TBS with 0.05% triton X-100) for 30 minutes at room temperature. The samples were then incubated with the primary antibody PCNA (Santa Cruz Biotechnology, USA) at a dilution of 1:100 at room temperature overnight. […]

MDA-MB-468 cells = experiment: MTT activity assay, aptamers transfected with Lipofectamine 2000; assay type: cell-based, human; conditions: MDA-MB-468, MTT activity at 48 hours, 0 to 500 nM
Procedure: FIGS. 8A-8C. Effect of aptamer apMNKQ2 on MTT activity of breast cell lines. MCF7, MDA-MB-231, and MDA-MB-468 cells were seeded in 96-well plates at a density of 10^4 cells/well. […] The graphs represent the means±SEM of 3 independent experiments (*p<0.05, **p<0.01, and ***p<0.001 with respect to the control AT).
The Lipofectamine™ 2000 system (Invitrogen, USA) was used to treat cells with the different aptamers. To prepare the DNA-lipofectamine complex, lipofectamine and DNA were separately diluted in opti-MEM (Gibco, USA) and left to incubate at room temperature for 5 minutes. They were then mixed to form lipofectamine-DNA complexes and incubated for 20 minutes at room temperature. Finally, the mixture was added to the cells that had been washed twice with antibiotic-free medium to prevent the interference thereof with lipofectamine. The cells were incubated at 37° C. for 5 hours, after which the reagent was removed and a complete medium was added.
MTT activity. The cells were seeded in 96-well plates and after having been transfected, the culture medium was removed and 100 μL/well of MTT at 1 mg/ml in culture medium were added. […] After 48 hours, the reduction of MTT was determined by means of spectrophotometry in Infinite F200 (TECAN, Switzerland) at 540 nm.
The results were expressed as the percentage of viability with respect to the control or in absorbance units.

[2] = tumors of mice treated with 1.8 mg/kg vs vehicle

Substance: 5′TGGGGTGGGCGGGCGGGGGTGGGGGTGGT-3′ (DNA, backbone and methylation of C not given here; further chemistry not fully specified) [apMNKQ2]
- decrease of cell proliferation in the tumor (PCNA immunohistochemistry) with respect to the control group ([1]; 1.8 mg/kg intravenously three times a week, 18 days): 50%
- decrease of the weight of the tumor after sacrificing the animals ([1]; 1.8 mg/kg intravenously three times a week, 18 days, not statistically significant): 27%
- weight of the mice ([1]; 1.8 mg/kg intravenously with jetPEI three times a week, 18 days): no changes
- relative size of the tumor (relative tumor volume) vs control group ([1]; intravenous with jetPEI three times a week, statistically significant at 7 and 18 days of treatment): smaller
- apoptosis in tumors (cleaved PARP, α-spectrin, MCL1 immunodetection) ([1]; tumors of mice treated with 1.8 mg/Kg vs vehicle): apoptotic effect
- mRNA levels of the mesenchymal marker FSP1 in tumors (qPCR) [1, 2]: decrease (although not significant)
- occludin epithelial marker expression in tumors (qPCR) [1, 2]: increases significantly
- GI50 (MDA-MB-468 cells): 0.019 µM
